Test results: patent US9783527B2, “Indazole ureas and method of use” (AbbVie Inc., priority 2014, dated 2017)

Assays:
human Nav1.8 = human Nav1.8 (Homo sapiens (Human), UniProt Q9Y5Y9); test: FRET-based membrane potential assay, recombinant human sodium channel Nav1.8; format: cell-based; conditions: HEK293 cells stably expressing recombinant human Nav1.8; depolarization with veratridine (EC80) + scorpion venom
Outline: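 HEK293 cells stably expressing Nav1.8 were loaded with CC2-DMPE/DiSBAC2(3) FRET voltage dyes. Compounds were added 3 min before depolarization with EC80 veratridine plus scorpion venom. The F440-480/F565-625 ratio was read on FLIPR; IC50 came from four-parameter Hill fits.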

[1] = tested on: MIA-induced osteoarthritic pain in rats; test: Osteoarthritic (OA) pain induced by sodium monoiodoacetate (MIA), hind limb grip force; format: in vivo, rat; conditions: male Sprague Dawley rats, grip force 20 days after MIA injection

Chain of human Nav1.8 (Q9Y5Y9 whole entry): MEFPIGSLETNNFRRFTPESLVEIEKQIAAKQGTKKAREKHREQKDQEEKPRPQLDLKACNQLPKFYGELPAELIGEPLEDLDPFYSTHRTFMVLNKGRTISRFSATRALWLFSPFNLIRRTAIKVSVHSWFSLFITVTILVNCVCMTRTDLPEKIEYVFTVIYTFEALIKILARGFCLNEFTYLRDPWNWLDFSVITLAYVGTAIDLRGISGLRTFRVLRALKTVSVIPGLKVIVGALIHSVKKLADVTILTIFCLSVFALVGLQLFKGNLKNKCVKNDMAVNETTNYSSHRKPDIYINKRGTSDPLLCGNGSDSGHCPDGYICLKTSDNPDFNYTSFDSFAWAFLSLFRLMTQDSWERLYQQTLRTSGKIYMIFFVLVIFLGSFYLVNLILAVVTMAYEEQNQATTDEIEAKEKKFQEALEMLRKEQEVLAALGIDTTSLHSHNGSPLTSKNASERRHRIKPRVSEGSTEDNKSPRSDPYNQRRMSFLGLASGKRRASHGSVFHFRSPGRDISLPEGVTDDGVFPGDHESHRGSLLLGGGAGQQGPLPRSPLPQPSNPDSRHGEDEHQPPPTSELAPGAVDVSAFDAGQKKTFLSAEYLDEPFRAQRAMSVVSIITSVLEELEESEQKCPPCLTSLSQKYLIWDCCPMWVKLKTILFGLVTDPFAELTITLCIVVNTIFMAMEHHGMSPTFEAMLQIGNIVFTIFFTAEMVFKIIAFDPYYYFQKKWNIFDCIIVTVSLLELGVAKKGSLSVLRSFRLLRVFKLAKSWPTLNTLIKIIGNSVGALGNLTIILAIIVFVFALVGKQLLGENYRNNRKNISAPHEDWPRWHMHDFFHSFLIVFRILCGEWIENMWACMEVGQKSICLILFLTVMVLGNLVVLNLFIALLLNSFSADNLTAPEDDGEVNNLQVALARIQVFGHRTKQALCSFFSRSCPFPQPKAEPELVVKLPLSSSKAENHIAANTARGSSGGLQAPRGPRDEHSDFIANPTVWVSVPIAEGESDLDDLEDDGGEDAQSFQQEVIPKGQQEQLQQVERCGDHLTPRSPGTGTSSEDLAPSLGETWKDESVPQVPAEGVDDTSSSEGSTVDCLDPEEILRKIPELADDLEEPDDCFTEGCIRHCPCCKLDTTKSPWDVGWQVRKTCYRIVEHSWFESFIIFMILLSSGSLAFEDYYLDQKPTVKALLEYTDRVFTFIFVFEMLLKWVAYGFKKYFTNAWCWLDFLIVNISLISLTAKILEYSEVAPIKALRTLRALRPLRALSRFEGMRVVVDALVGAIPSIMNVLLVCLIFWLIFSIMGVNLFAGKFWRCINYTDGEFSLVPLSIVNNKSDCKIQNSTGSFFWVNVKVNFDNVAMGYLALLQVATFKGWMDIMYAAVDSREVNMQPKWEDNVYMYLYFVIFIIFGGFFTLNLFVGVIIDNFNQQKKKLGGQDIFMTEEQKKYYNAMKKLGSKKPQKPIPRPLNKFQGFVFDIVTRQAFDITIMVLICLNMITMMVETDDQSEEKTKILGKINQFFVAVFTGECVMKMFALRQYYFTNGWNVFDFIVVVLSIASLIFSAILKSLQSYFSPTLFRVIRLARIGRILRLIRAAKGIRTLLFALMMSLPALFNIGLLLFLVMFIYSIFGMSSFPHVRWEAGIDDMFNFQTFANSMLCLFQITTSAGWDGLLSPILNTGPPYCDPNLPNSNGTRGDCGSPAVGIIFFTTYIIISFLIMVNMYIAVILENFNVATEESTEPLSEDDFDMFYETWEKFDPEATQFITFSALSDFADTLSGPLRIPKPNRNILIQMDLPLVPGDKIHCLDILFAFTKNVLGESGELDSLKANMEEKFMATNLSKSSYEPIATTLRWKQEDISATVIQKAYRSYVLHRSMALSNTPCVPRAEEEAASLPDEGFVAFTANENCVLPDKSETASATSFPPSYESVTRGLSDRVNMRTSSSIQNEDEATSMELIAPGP

Cc1noc(C(C)N2CCN(c3cccc4c3cnn4-c3ccccc3F)C2=O)n1 (racemic) [Example 46, 1-[1-(2-fluorophenyl)-1H-indazol-4-yl]-3-[1-(3-methyl-1,2,4-oxadiazol-5-yl)ethyl]imidazolidin-2-one]
IC50 (human Nav1.8): 8.73 µM | OA MPE (%) ([1]; OA dose 30 mg/kg): 69%

C[C@H]1CCCN1C(=O)CN1CCN(c2cccc3c2cnn3-c2ccccc2F)C1=O [Example 15, 1-[1-(2-fluorophenyl)-1H-indazol-4-yl]-3-{2-[(2S)-2-methylpyrrolidin-1-yl]-2-oxoethyl}imidazolidin-2-one]
IC50 (human Nav1.8): 1.81 µM | OA MPE (%) ([1]; OA dose 30 mg/kg): 68%

O=C(CN1CCN(c2cccc3c2cnn3-c2ccccc2F)C1=O)N[C@@H]1CCOC1 [Example 55, 2-{3-[1-(2-fluorophenyl)-1H-indazol-4-yl]-2-oxoimidazolidin-1-yl}-N-[(3R)-tetrahydrofuran-3-yl]acetamide]
IC50 (human Nav1.8): 5.28 µM | OA MPE (%) ([1]; OA dose 30 mg/kg): 66%

Cc1noc(C)c1CN1CCN(c2cccc3c2cnn3-c2ccccc2F)C1=O [Example 27, 1-[(3,5-dimethyl-1,2-oxazol-4-yl)methyl]-3-[1-(2-fluorophenyl)-1H-indazol-4-yl]imidazolidin-2-one]
IC50 (human Nav1.8): 1.04 µM | OA MPE (%) ([1]; OA dose 10 mg/kg): 57%
